Experimental data: PMC8536124 (International Journal of Molecular Sciences, 2021)

Key:
[1] = test system: HOP-92; assay: NCI-60 screening (SRB); assay type: cell-based, human; conditions: five-dose
[2] = test system: MCF7; assay: NCI-60 screening (SRB); assay type: cell-based, human; conditions: five-dose
[3] = test system: NCI-H522; assay: NCI-60 screening (SRB); assay type: cell-based, human; conditions: five-dose
[4] = test system: SK-MEL-2; assay: NCI-60 screening (SRB); assay type: cell-based, human; conditions: five-dose
[5] = test system: SF-539; assay: NCI-60 screening (SRB); assay type: cell-based, human; conditions: SF-539, five-dose
[6] = test system: HS 578T; assay: NCI-60 screening (SRB); assay type: cell-based, human; conditions: five-dose
[7] = test system: SK-OV-3; assay: NCI-60 screening (SRB); assay type: cell-based, human; conditions: Homo sapiens, five-dose
[8] = test system: UO-31; assay: NCI-60 screening (SRB); assay type: cell-based, human; conditions: five-dose
[9] = test system: MDA-MB-31/ATCC; assay: NCI-60 screening (SRB); assay type: cell-based, human; conditions: five-dose
[10] = test system: OVCAR-5; assay: NCI-60 screening (SRB); assay type: cell-based, human; conditions: five-dose
[11] = test system: IGROV1; assay: NCI-60 screening (SRB); assay type: cell-based, human
[12] = test system: COLO 205; assay: NCI-60 screening (SRB); assay type: cell-based, human; conditions: five-dose
[13] = test system: SF-295; assay: NCI-60 screening (SRB); assay type: cell-based, human; conditions: five-dose
[14] = test system: T-47D; assay: NCI-60 screening (SRB); assay type: cell-based, human; conditions: five-dose
[15] = test system: PC-3; assay: NCI-60 screening (SRB); assay type: cell-based, human; conditions: five-dose
[16] = test system: NCI-H460; assay: NCI-60 screening (SRB); assay type: cell-based, human; conditions: five-dose
[17] = test system: K-562; assay: NCI-60 screening (SRB); assay type: cell-based, human
[18] = test system: SN12C; assay: NCI-60 screening (SRB); assay type: cell-based, human; conditions: five-dose
[19] = test system: CNS cancer; assay: cells; assay type: cell-based
Text: The experimental data allow the assessment of the cytostatic effect, indicated by growth inhibition values ranging between 0 and 100, as well as of the cytotoxic effect, indicated by negative values.
The mean GI50 (molar concentration of the compound that inhibits 50% net cell growth), TGI (molar concentration of the compound leading to the total inhibition), and LC50 (molar concentration of the compound leading to 50% net cell death (presented in negative logarithm)) values across each cell line are shown in Table 2.
The selectivity index (SI), calculated as the ratio between the full panel MG_MID60 (μM) of compounds 4, 6, and 9 by their respective subpanels MG_MID of the cell line (μM), was introduced as a quantification tool for the selectivity of each compound in terms of anticancer effect (Table 3).
Primary anticancer assays were performed according to the NCI protocol, as described elsewhere (see e.g., http://dtp.nci.nih.gov accessed on 1 November 2018). The compounds were added at a single concentration, and the cell cultures were incubated for 48 h. The end point determinations were made with a protein-binding dye, sulforhodamine B (SRB). […] The percentage of growth was evaluated spectrophotometrically versus controls not treated with test agents after 48 h exposure and using SRB protein assay to estimate cell viability or growth. Three antitumor activity dose-response parameters were calculated for each cell line. Furthermore, mean graph midpoints (MG_MID) were calculated for each of the parameters, giving an average activity parameter over all cell lines for the tested compound. For the MG_MID calculation, insensitive cell lines were included with the highest concentration tested.

[20] = test system: RPMI-8226; assay: NCI-60 screening (SRB); assay type: cell-based, human; conditions: five-dose
[21] = test system: OVCAR-4; assay: NCI-60 screening (SRB); assay type: cell-based, human; conditions: five-dose
[22] = test system: BT-549; assay: NCI-60 screening (SRB); assay type: cell-based, human; conditions: five-dose
[23] = test system: NCI/ADR-RES; assay: NCI-60 screening (SRB); assay type: cell-based, human; conditions: five-dose
[24] = test system: MDA-MB-468; assay: NCI-60 screening (SRB); assay type: cell-based, human; conditions: five-dose
[25] = test system: U251; assay: NCI-60 screening (SRB); assay type: cell-based, human
[26] = test system: UACC-62; assay: NCI-60 screening (SRB); assay type: cell-based, human; conditions: five-dose
[27] = test system: SNB-19; assay: NCI-60 screening (SRB); assay type: cell-based, human; conditions: five-dose
[28] = Homo sapiens, read-out: LC50 (the source's name)

## CCN1CCN(C(=O)[C@]23CCC(C)(C)C[C@H]2C2=CC[C@@H]4[C@@]5(C)C/C(=C/c6cccnc6)C(=O)C(C)(C)[C@@H]5CC[C@@]4(C)[C@]2(C)CC3)CC1 [Compound 6]
[1]; Homo sapiens
  GI50: 1.06 µM
[1]; [28]
  CC50: 10.1 µM
[1]
  TGI: 3.26 µM
[2]; Homo sapiens
  GI50: 1.4 µM
[2]; [28]
  CC50: 6.71 µM
[2]
  TGI: 3.07 µM
[3]; Homo sapiens
  GI50: 1.61 µM
[3]; [28]
  CC50: 8.73 µM
[3]
  TGI: 3.75 µM
[4]; Homo sapiens
  GI50: 1.93 µM
[4]; [28]
  CC50: 8.16 µM
[4]
  TGI: 3.96 µM
[5]; Homo sapiens
  GI50: 1.62 µM
[5]; [28]
  CC50: 5.55 µM
[5]
  TGI: 3.00 µM
[6]; Homo sapiens
  GI50: 1.83 µM
[6]; [28]
  CC50: > 100 µM
[6]
  TGI: 5.37 µM
[7]
  GI50: 4.19 µM
[7]; read-out: LC50 (the source's name)
  CC50: 76.1 µM
[8]; Homo sapiens
  GI50: 1.35 µM
[8]; [28]
  CC50: 5.32 µM
[8]
  TGI: 2.67 µM
[9]; Homo sapiens
  GI50: 1.4 µM
[9]; [28]
  CC50: 5.78 µM
[9]
  TGI: 2.84 µM
[10]; Homo sapiens
  GI50: 1.56 µM
[10]; [28]
  CC50: 7.19 µM
[10]
  TGI: 3.35 µM
[11]; Homo sapiens, IGROV-1, five-dose
  GI50: 1.91 µM
[11]; Homo sapiens, IGROV-1, five-dose, read-out: LC50 (the source's name)
  CC50: 9.1 µM
[11]; five-dose
  TGI: 4.16 µM
[12]; Homo sapiens
  GI50: 1.89 µM
[12]; [28]
  CC50: > 100 µM
[12]
  TGI: 4.74 µM
[13]; Homo sapiens
  GI50: 1.66 µM
[13]; [28]
  CC50: 5.97 µM
[13]
  TGI: 3.15 µM
[14]; Homo sapiens, T47D
  GI50: 2.61 µM
  LC50 (concentration killing 50% of cells): > 100 µM
[14]
  TGI: 13.7 µM
[15]; Homo sapiens
  GI50: 1 µM
[15]; [28]
  CC50: 7.78 µM
[15]
  TGI: 2.79 µM
[16]; Homo sapiens
  GI50: 1.39 µM
[16]; [28]
  CC50: 6.2 µM
[16]
  TGI: 2.93 µM
[17]; Homo sapiens, K562, five-dose
  GI50: 0.443 µM
[17]; Homo sapiens, K562, five-dose, read-out: LC50 (the source's name)
  CC50: > 100 µM
[17]; five-dose
  TGI: 3.34 µM
[18]; Homo sapiens
  GI50: 1.22 µM
[18]; [28]
  CC50: 5.3 µM
[18]
  TGI: 2.54 µM
[19]; CNS cancer subpanel, five-dose
  TGI MG_MID: 3.50 µM
[19]; CNS cancer, MG_MID60/subpanel MG_MID
  SI (TGI): 1.80
[19]; Homo sapiens, CNS cancer subpanel, five-dose, read-out: GI50 MG_MID
  GI50: 1.63 µM
[19]; Homo sapiens, CNS cancer subpanel, five-dose, read-out: LC50 MG_MID
  CC50: 22.1 µM
[20]; Homo sapiens
  GI50: 1.03 µM
[20]; [28]
  CC50: > 100 µM
[20]
  TGI: 5.20 µM
[21]; Homo sapiens
  GI50: 2.17 µM
[21]; [28]
  CC50: 47.8 µM
[21]
  TGI: 7.85 µM
[22]; Homo sapiens
  GI50: 1.47 µM
[22]; [28]
  CC50: 5.66 µM
[22]
  TGI: 2.88 µM
[23]; Homo sapiens
  GI50: 1.57 µM
[23]; [28]
  CC50: 7.6 µM
[23]
  TGI: 3.46 µM
[24]; Homo sapiens
  GI50: 1.28 µM
[24]; [28]
  CC50: 19.7 µM
[24]
  TGI: 3.94 µM
[25]; Homo sapiens, U-251, U251, five-dose
  GI50: 1.58 µM
[25]; Homo sapiens, U-251, U251, five-dose, read-out: LC50 (the source's name)
  CC50: 6.13 µM
[25]; U251 (CNS cancer), 1 dose 10 µM
  Growth %: −88.15%
[25]; U251, five-dose
  TGI: 3.11 µM
[26]; Homo sapiens
  GI50: 1.28 µM
[26]; [28]
  CC50: 6.23 µM
[26]
  TGI: 2.83 µM
[27]; Homo sapiens
  GI50: 1.68 µM
[27]; [28]
  CC50: 7.12 µM
[27]
  TGI: 3.46 µM
